Source: US20050101633A1, “Remedial agent for myelopathic disease” (priority 2001, published 2005)

How the values were obtained:
[1] = tested on: spinal cord injury model in rats; conditions: reported in Brain Research, 799, 264-269 (1998); cited from earlier work
[2] = tested on: rat spinal cord injury model; test: Improvement of dyskinesia, inclined-plane test after spinal cord injury; format: in vivo; conditions: 50 mg/kg injected 15 min before SCI; compression injury with 20-g weight; up to 28 days; FIG. 5
Method: (§1) SCI was induced 15 min after injection of test compound (50 mg/kg). Dyskinesia was assessed according to an open field walking scale (Behrmann et al., Exp. Neurol. 126, 61-75 (1994)) and an inclined-plane test (Rivlin et al., J. Neurosurg. 47, 577-581 (1977)) using rats subjected to compression injury with a 20-g weight. In the open field walking scale, animals were scored from 0 (no spontaneous movement) to 5 (normal gait) based on 5 min of observation. With the scale, the animal's capability for gross hindlimb movement was evaluated before SCI, every 2 days afterward for 2 weeks beginning on the first day, and later at 21 and 28 days after injury. In the inclined-plane test, a cork mat was fixed to the surface of a movable inclined plane. We recorded the maximal angle of inclined-plane at which the rat could maintain position for […]. This was evaluated before and at 1, 7, 14, 21 and 28 days after injury.

blood-CNS barrier = test: Blood-CNS barrier disruption (Evans blue dye) after spinal cord injury; format: in vivo, rat; conditions: 50 mg/kg injected 15 min before SCI; Evans blue at 6 h after SCI; FIG. 3
Method: Disruption of the blood-CNS barrier was assessed according to the method of Uyama et al. [J. Cereb. Blood Flow Metab. 8, 282-284 (1988)] with certain modifications. SCI was induced 15 min after injection of test compound (50 mg/kg). At 6 h after SCI, 4 mL/kg of 2.5% Evans blue dye solution was administered via the femoral vein. One hour later rats were anesthetized by pentobarbital (40 mg/kg) and killed. The T13 spinal cord segment was removed and homogenized in 1 mL of 50% trichloroacetic acid (w/v). After centrifugation the extracted dye was diluted fourfold with ethanol, and its fluorescence was quantified using a spectrophotometer at an excitation wavelength of 620 nm and an emission wavelength of 680 nm.

[3] = tested on: rat spinal cord injury model; test: Improvement of dyskinesia, open field walking scale after spinal cord injury; format: in vivo; conditions: 50 mg/kg injected 15 min before SCI; compression injury with 20-g weight; up to 28 days; FIG. 4
Method: as §1

myeloperoxidase activity = test: Assay of myeloperoxidase (MPO) activity in T13 spinal cord segment after spinal cord injury; format: in vivo, rat; conditions: administered 15 minutes before spinal cord injury, FIG. 2
Method: For assessment of accumulation and infiltration of leukocytes, we measured myeloperoxidase activity according to a modification of the method of Xu et al. (J. neurochem. 55, 907-912 (1990)). The test compound was administrated 15 minutes before spinal cord injury, and then the T13 segments 2, 4, 8, 12 and 24 h after injury were sonicated in 1 mL of 50 mM potassium phosphate buffer (pH 6.0) containing 0.5% […]. The homogenates were centrifuged at 10,000×g for 20 min, and 0.1 mL of the supernatant was added to 0.6 mL of 50 mM potassium phosphate buffer (pH 6.0) containing 0.53 mM o-dianisidine dihydrochrolide and 0.15 mM H2O2. After 5 min, the change in absorbance at 460 nm was monitored with a spectrophotometer (model DU 640, Beckmann, Germany).

CINC-1 protein = test: Suppression of CINC-1 expression on rat spinal cord injury model; format: in vivo; conditions: Wistar rats; injected via femoral vein 15 min before spinal cord injury; T13 segment; FIG. 1
Method: Under anesthesia using pentobarbital (40 mg/kg of body weight), spinal cord injury model was made using Wistar rats weighing 250-300 g according to the operative procedure of Tonai et al. [J. Neurochem. 72, 302-309 (1999)]. At various time intervals after injury, the rats were frozen, and then T13 spinal cord segment was removed for analysis of CINC-1 protein.
The test compound was dissolved in physiologic saline containing 12 mM Na2CO3 and injected via the femoral vein 15 min before spinal cord injury. Saline vehicle alone was administered by the same route in control animals.

CO[C@H]1C(=O)N2C(C(=O)N3CCC[C@H]3C(=O)O)=C(COC(C)=O)CS(=O)(=O)[C@H]12 [L 658,758]
efficacy in spinal cord injury model in rats [1]: effective

CC(C)(C)C(=O)Oc1ccc(S(=O)(=O)Nc2ccccc2C(=O)NCC(=O)[O-])cc1.O.O.O.O.[Na+] [compound (X), N-[o-(p-pivaloyloxybenzenesulfonylamino)benzoyl]glycine monosodium salt tetrahydrate]
dyskinesia after spinal cord injury, inclined-plane test [2]: suppressed dyskinesia after spinal cord injury significantly
Blood-CNS barrier disruption (blood-CNS barrier): suppressed Blood-CNS barrier disruption significantly
dyskinesia after spinal cord injury, open field walking scale [3]: suppressed dyskinesia after spinal cord injury significantly
myeloperoxidase activity (myeloperoxidase activity; 4 hours after injury): 46 % of control
myeloperoxidase activity (myeloperoxidase activity; 12 hours after injury): 61 % of control
myeloperoxidase activity (myeloperoxidase activity; 24 hours after injury): 64 % of control
CINC-1 protein expression after spinal cord injury (CINC-1 protein): suppressed in dose-dependently

Eglin C
efficacy in spinal cord injury model in rats [1]: effective
